Assay results from US20100227853A1, “INHIBITORS OF CYCLIC AMP PHOSPHODIESTERASES” (Trustees of Boston College, priority 2008, published 2010).

Key:
PDE4A5 = biological target: T1, PDE4A5 (Rattus norvegicus, UniProt P54748); test: 5FOA growth assay in fission yeast strain expressing PDE4A5; type: cell-based; settings: for Composite Z score, PDE4A5: high throughput 5FOA growth screen
T1 construct: targets used in the assays are full-length proteins (as opposed to simply the catalytic domain); expressed in transfected cells; host or cells: Schizosaccharomyces pombe, PDE gene integrated in place of cgs2
T1 sequence (P54748 1-844): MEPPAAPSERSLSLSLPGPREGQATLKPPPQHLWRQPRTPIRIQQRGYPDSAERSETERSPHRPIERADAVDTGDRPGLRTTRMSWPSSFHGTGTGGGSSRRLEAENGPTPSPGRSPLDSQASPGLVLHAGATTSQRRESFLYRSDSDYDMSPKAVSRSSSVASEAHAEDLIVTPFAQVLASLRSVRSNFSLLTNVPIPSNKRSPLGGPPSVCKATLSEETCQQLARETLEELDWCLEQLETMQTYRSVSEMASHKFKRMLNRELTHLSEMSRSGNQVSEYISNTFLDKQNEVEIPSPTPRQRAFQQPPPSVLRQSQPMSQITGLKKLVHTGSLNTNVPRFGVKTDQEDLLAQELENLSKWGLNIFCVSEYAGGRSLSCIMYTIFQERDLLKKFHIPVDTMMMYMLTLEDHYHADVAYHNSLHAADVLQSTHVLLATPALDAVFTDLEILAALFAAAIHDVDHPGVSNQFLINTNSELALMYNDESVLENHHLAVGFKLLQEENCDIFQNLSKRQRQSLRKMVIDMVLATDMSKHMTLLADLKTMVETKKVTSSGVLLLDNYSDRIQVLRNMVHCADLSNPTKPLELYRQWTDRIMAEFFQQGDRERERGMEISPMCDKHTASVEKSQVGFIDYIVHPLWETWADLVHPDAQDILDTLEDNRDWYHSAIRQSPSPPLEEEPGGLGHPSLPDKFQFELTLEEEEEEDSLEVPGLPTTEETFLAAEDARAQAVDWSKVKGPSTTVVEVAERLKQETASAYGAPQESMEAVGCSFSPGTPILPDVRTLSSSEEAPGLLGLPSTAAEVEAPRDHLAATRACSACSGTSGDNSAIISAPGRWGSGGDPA
Procedure: High throughput drug screens were carried out at the Broad Institute's Chemical Biology Program screening facility (Broad Institute, Cambridge, Mass.). Depending upon the strain, cultures were pregrown to exponential phase in EMM complete medium containing from 0.5 to 2.5 mM cAMP to repress fbp1-ura4 transcription. Cells were collected by centrifugation, resuspended in 5FOA medium, and 25 μl were transferred to 384-well microtiter dishes (untreated, with flat clear bottoms) that had been pre-filled with 25 μl 5FOA medium and pre-pinned with 100 nl of compounds (stock solutions were generally 10 mM) from a subset of the Prestwick Bioactive and the Microsource Spectrum compound libraries. Starting cell concentrations ranged from 0.5×10^5 to 4×10^5 cells/ml depending on the screening strain. […] Other positive control dishes contained 5 mM cAMP in the 5FOA medium. Cultures were grown for 48 hours at 30° C., sealed in an airtight container with moist paper towels to prevent evaporation. Optical densities (OD600) of cultures were measured using a microplate reader. Bioinformatic analysis of the results to determine composite Z scores was performed as previously described^30, 31.
Cells were pregrown in EMM medium [MP Biomedicals (Solon, Ohio), 3% glucose, filter-sterilized to avoid carmelization, which would introduce variability into the optical density of the medium] containing from 0 mM to 2.5 mM cAMP (or either 0.5 mM or 1.0 mM cGMP). This was to repress expression of the fbp1-ura4 reporter prior to exposure of cells to 5FOA medium. Cells were grown at 30° C. to exponential phase (approximately 10^7 cells/ml). Cells were collected by centrifugation and resuspended in 5FOA medium, and 25 μl were transferred to 384-well microtiter dishes (untreated, with flat clear bottoms) that had been pre-filled with 25 μl 5FOA medium and pre-pinned with 100 nl of compounds (stock solutions were generally 10 mM). Starting cell concentrations ranged from 0.5×10^5 to 4×10^5 cells/ml depending on the screening strain. […] Other positive control dishes contained 5 mM cAMP in the 5FOA medium for PDEs that lack appropriate control compounds. Cultures were grown for 48 hours at 30° C., sealed in an airtight container with moist paper towels to prevent evaporation. Optical densities (OD600) of cultures were measured using a microplate reader. Bioinformatic analysis of the results to determine composite Z scores was performed as previously described (1, 3).

PDE7A = PDE7A (Homo sapiens, UniProt Q13946); test: 5FOA growth assay in fission yeast strain expressing PDE7A; type: cell-based; parameters: targets used in the assays are full-length proteins (as opposed to simply the catalytic domain); expressed in transfected cells; host or cells: Schizosaccharomyces pombe, PDE gene integrated in place of cgs2; settings: for Composite Z score, PDE7A: high throughput 5FOA growth screen
Method in brief: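 Fission yeast carrying an fbp1-ura4 reporter were pregrown to exponential phase at 30 °C in EMM with 0–2.5 mM cAMP (or 0.5/1.0 mM cGMP), then moved into 5FOA medium with 100 nl pinned compound (10 mM stocks). Growth was read as OD600 after 48 h at 30 °C and scored as composite Z scores.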

Sequence of PDE7A (Q13946 whole entry, the tested form may be a part): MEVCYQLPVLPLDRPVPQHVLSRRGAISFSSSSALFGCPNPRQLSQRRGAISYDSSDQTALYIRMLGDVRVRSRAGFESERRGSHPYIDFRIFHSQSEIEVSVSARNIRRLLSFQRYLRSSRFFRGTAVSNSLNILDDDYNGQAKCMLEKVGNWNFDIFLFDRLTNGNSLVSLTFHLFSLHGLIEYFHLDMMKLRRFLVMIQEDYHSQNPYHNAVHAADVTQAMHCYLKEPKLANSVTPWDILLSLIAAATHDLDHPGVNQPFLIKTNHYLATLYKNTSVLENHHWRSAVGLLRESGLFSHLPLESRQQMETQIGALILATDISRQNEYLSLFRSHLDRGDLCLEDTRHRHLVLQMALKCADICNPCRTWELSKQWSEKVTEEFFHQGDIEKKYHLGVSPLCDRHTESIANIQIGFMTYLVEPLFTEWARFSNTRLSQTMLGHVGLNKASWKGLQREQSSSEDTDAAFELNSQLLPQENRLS

SMILES | Composite Z score, PDE4A5 (PDE4A5) | Composite Z score, PDE7A (PDE7A) | further results
Cc1ccc2c(c1)CCC1CC(=O)CC[C@]21C (some centres unmarked) [Compound 2158J12] |  |  | 2 Assay (2 uM), 4A5 (PDE4A5; 2 uM, PDE 4A5): 7.00; 1 Assay (20 uM) 4A5 (PDE4A5; PDE 4A5): 113.27; 2 Assay (2 uM), 7A (PDE7A; 2 uM, PDE 7A): 29.01; 1 Assay (20 uM) 7A (PDE7A; PDE 7A): 74.45
COC(=O)C1=C(C)N(c2ccc(C(C)C)cc2)C(=O)/C1=C\c1ccco1 [2008, 019] |  |  | 1 Assay (20 uM) 4A5 (PDE4A5): 1.73 ND ND ND ND; 1 Assay (20 uM) 7A (PDE7A): 2.78 ND ND ND ND
Cc1c(C(=O)N2CCCCCC2)sc2ncnc(N3CCN(c4ccccc4)CC3)c12 [Compound 2041I21] | −0.939 | −0.933 | 
COC(=O)C1=C(C)N(c2ccccc2)/C(=C/c2cccs2)C1=O [2008, K19] |  |  | 1 Assay (20 uM) 4A5 (PDE4A5): 0.06 ND ND ND ND; 1 Assay (20 uM) 7A (PDE7A): 2.43 ND ND ND ND
CCN(CC)c1ncnc2sc3c(c12)CCCC3 [BC44] | 63.222 | 177.31 | 
CCOC(CNc1nc(C)nc2sc3c(c12)CCCC3)OCC [Compound 2040D04] | −0.897 | −0.593 | 
CCOC(=O)c1ccccc1NC(=O)c1sc2nc(C)nc(N(CC)CC)c2c1C [Compound 2040P12] | 1.3091 | 1.3653 | 
CCC1CCc2c(sc3ncnc(N4CCOCC4)c23)C1 (centres unmarked) [BC33] | 36.026 | −0.794 | EC50 (PDE7A; OD600 0.6, read-out: ED50 for 5FOA growth assays, PDE7A): > 200 µM
CCNc1nc(SCc2ccc(Cl)cc2)nc2sc3c(c12)CCN(C)C3 [Compound 2054P05] | 1.0025 | 1.181 | 
O=C(Nc1ncnc2sc3c(c12)CCCCC3)c1ccc(F)cc1 [Compound 2012F09] | 26.878 | 30.877 | 
COC(=O)C1/C(=C/c2cccc(OC)c2O)C(=O)N(c2ccccc2F)C1C (centres unmarked) [2008, C21] |  |  | 1 Assay (20 uM) 4A5 (PDE4A5): 1.80 ND ND ND ND; 1 Assay (20 uM) 7A (PDE7A): −0.08 ND ND ND ND
C=Cn1c2ccccc2c2nc3ccccc3nc21 [2033, H06] |  |  | 1 Assay (20 uM) 4A5 (PDE4A5; PDE 4A5): 66.58 ND ND ND ND; 1 Assay (20 uM) 7A (PDE7A; PDE 7A): 0.63 ND ND ND ND
CCCCn1c2ccccc2c2nc3ccccc3nc21 [2013, I20] |  |  | 1 Assay (20 uM) 4A5 (PDE4A5; PDE 4A5): 71.82 ND ND ND ND; 1 Assay (20 uM) 7A (PDE7A; PDE 7A): −0.84 ND ND ND ND

Continued, in another order:

Composite Z score, PDE4A5 (PDE4A5) | Composite Z score, PDE7A (PDE7A) | SMILES | further results
−10.26 | 1.5462 | CCCCN(CC)C(=O)c1sc2ncnc(N3CCN(c4ccc(OC)cc4)CC3)c2c1C [Compound 2007H06] | 
13.196 | 0.2354 | CCOC(=O)c1sc2nc(C)nc(N(C)Cc3ccccc3)c2c1C [Compound 2007L04] | 
111.95 | 123.57 | Cc1c(C(=O)Nc2ccc(F)cc2F)sc2ncnc(N(C)c3ccccc3)c12 [Compound 58-9] | 
